# Literature values as cited in patent US20040224037A1, “Devastating treatment against hiv/aids with capsaicin” (priority 2003, published 2004).
# Read-outs that look alike come from different tables or passages of the source. Ends that are not written are not given here.
# How the values were obtained:
# [1] = tested on: proliferating macrophages from the blood of four patients with AIDS dementia
# [2] = tested on: Candida albicans
# [3] = tested on: cats and dogs; conditions: 50 mcg/kg iv. in cats and dogs
# [4] = tested on: [4-(methylnitrosamino)-1-(3-pyridyl)-1-butanone] nnk
# [5] = tested on: Staphylococcus aureus
# [6] = tested on: Salmonella typhimurium
# [7] = tested on: rats; conditions: for blood pressure and heart rate after pretreatment: previous anesthesia, Capsaicin pretreatment 100 mg during four days
# [8] = tested on: rats; conditions: 18 mcg/kg injected, anesthesia, pretreatment 4,8,16 and 200 mg/kg each 12 hours
# [9] = tested on: rats; conditions: higher doses reduced acid output
# [10] = tested on: dogs
# [11] = tested on: Clostridium sporogenes
# [12] = tested on: macrophages; conditions: in vitro
# [13] = tested on: intestinal glucose absorption; conditions: 140 mcg/ml, rats in vitro
# [14] = tested on: rats; conditions: iv. treatment, also printed 0.5 mg/kg
# [15] = tested on: humans
# [16] = tested on: dogs; conditions: 10 mcg/kg iv. in dogs
# [17] = tested on: b-endorphin; conditions: rats; 3,5,7 and 15 days after Capsaicin administration
# [18] = tested on: Streptococcus pyogenes
# [19] = tested on: cancer
# [20] = tested on: Escherichia coli
# [21] = Capsaicin administration at high concentration
# [22] = tested on: tongue; conditions: Nelson 1910
# [23] = tested on: histamine and 5-hydroxitryptamine; conditions: treatment with Capsaicin in rats
# [24] = tested on: substance p(sp); conditions: pretreatment with Capsaicin in rats
# [25] = tested on: enzyme (cyp2e1) of cytochrome p4502e1; conditions: in the liver
# [26] = tested on: Bacillus cereus
# [27] = tested on: herpes simplex; conditions: sc. administration, rats infected with herpes simplex
# [28] = tested on: Bacillus subtilis
# [29] = tested on: cats
# [30] = tested on: mice
# [31] = tested on: human
# [32] = tested on: human leucocytes
# [33] = tested on: guinea pig peritoneal macrophages
# [34] = tested on: macrophages of mice
# [35] = tested on: lymphocytes
# [36] = tested on: nk cells; conditions: deviation of more or less 11.5%
# [37] = tested on: masT cells; conditions: suspensions of mast cells in rats
# [38] = tested on: Sprague-Dawley cd rats; conditions: pregnant rats, 0, 500 or 5000 mg/kg/day
# enzyme (cyp2e1) of cytochrome p4502e1, sequence (P05181 whole entry, species assumed): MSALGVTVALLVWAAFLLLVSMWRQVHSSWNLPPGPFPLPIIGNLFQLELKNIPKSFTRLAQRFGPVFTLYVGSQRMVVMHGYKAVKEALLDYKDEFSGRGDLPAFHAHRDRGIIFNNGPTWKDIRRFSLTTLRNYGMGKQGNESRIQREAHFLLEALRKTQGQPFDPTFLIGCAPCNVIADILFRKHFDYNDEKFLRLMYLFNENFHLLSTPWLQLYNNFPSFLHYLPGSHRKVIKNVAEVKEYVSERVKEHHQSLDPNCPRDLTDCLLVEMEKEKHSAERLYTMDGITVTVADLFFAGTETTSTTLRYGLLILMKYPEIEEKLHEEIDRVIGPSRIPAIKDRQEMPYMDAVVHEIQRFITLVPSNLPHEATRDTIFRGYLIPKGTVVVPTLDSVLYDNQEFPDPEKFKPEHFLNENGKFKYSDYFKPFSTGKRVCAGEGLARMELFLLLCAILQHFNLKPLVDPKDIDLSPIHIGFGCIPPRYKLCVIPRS
compound,measurement,setting,value
"CCNCCCNC[C@@H]1CC[C@H]1CNCCCNCC.Cl.Cl.Cl.Cl (relative stereo) [SL-11038, N-ethyl-N′-(2-(3′-ethylamino-propylaminomethyl)-trans-cyclobutylmethyl)-propane 1,3-diamine tetrahydrochloride]",effect on proliferating macrophages,[1],potent effect of inhibition
"CCNCCCNC[C@@H]1C[C@H]1CNCCCNCC.Cl.Cl.Cl.Cl (relative stereo) [SL-11044, N-ethyl-N′-(2-(3′-ethylamino-propylaminomethyl)-trans-cyclopropylmethyl)-propane 1,3-diamine tetrahydrochloride]",effect on proliferating macrophages,[1],potent effect of inhibition
"CCNCCCCNCCCCNCCCCNCCCCNCC [BE-4444, 1,19-bis(ethylamino)-5,10,15-triazanonadecane]",effect on proliferating macrophages,[1],potent effect of inhibition
"COc1cc(CNC(=O)CCCC/C=C/C(C)C)ccc1O [Capsaicin, 8-methyl-n-vanillyl-6-nonenamide]",activity,[2],did not show activity
same,blood pressure,[3],fast fallen in blood pressure
same,"drop of the pulse, first value",[3],108 min⁻¹
same,"drop of the pulse, second value",[3],24 min⁻¹
same,subsequent tachycardia,[3],160 min⁻¹
same,effect on tobacco specific carcinogen nnk,[4],inhibited
same,activity,[5],did not show activity
same,activity,[6],did not show activity
same,blood pressure and heart rate after pretreatment,"[7]; 1 mcg injected, rats",normal blood pressure and rate of the heart
same,effect of iv. dose on blood pressure and heart rate,[7]; 1 mcg or 3 mcg/kg iv. in rats,reproduced three phases
same,blood pressure and heart rate after pretreatment,[7]; 50 mcg slow infusion over 12 mins,normal blood pressure and rate of the heart
same,Bezold-Jarisch reflex after pretreatment,[8],significant inhibition of the Bezold-Jarisch reflex
same,dose at which acid secretory response reached a maximum,[9],1 mg/kg
same,respiratory effect,"[10]; administration rate 10-20 mcg/kg/min, dogs","fast superficial respiration, but without apnea"
same,respiratory effect,"[10]; injected 0.5-20 mcg/kg, dogs anesthetised with chloralose","apnea, followed by a fast superficial respiration"
same,effect on growth / activity,[11],did not show activity
same,"production of anions superoxides, peroxide of hydrogen and nitrites by macrophages",[12]; 10 mcm,completely inhibited
same,intestinal glucose absorption,[13],inhibitory effect
same,letal dose,[14],0.5 mg/kg
same,time for area of hyperalgesia to reach a maximum,[15]; 10 mcg intradermal,≤ 5 min
same,time to disappearance of hyperalgesia,[15]; 10 mcg intradermal,≤ 15 min
same,time for area of hyperalgesia to reach a maximum,[15]; 100 mcg intradermal,≤ 7 min
same,time to disappearance of hyperalgesia,[15]; 100 mcg intradermal,≤ 137 min
same,effect of iv. dose,[16],"apnea, bradycardia, hypotension"
same,b-endorphin concentration in the hypothalamus,[17],decreased
same,effect on growth / activity,[18],did not show activity
same,growth (cancer),[19],inhibit growth at low concentration
same,activity,[20],did not show activity
same,time after which recovery of the desensitization is not complete,[21],> 60 days
same,concentration giving perceptible warmth on tongue,[22]; 1 ppm,1 µg/mL
same,concentration giving persistent burning on tongue,[22]; 10 ppm,10 µg/mL
same,histamine and 5-hydroxitryptamine,[23],increment
same,effect upon the substance p(sp) at intestinal level,[24],did not have effect
same,activity of enzyme cyp2e1,[25],capable to inhibit
same,effect on growth / activity,[26],did not show activity
same,mortality,[27],reduced mortality
same,effect on growth / activity,[28],did not show activity
same,effect of iv. dose,[29]; 200 mcg/kg iv. in cats,"bradycardia, apnea"
same,tension reduction,[29]; 200 mcg/kg iv. in cats,46 mmhg
same,effect of iv. dose,[29]; 400 mcg/kg iv. in cats,higher post-hypotension and a second period of apnea
same,GLINSUKON EXP (LD50),"[30]; ig. adm, mice",67 mg/kg
same,"GLINSUKON EXP (LD50), value in brackets","[30]; ig. adm, mice, second value in brackets",190 mg/kg
same,GLINSUKON EXP (LD50),"[30]; iv. adm, mice",0.5 mg/kg
same,LD50,"[30]; iv., male mice",0.56 mg/kg
same,GLINSUKON EXP (LD50),"[30]; sc. adm, mice",8.5 mg/kg
same,toxicity effect measured by LD50 compared between routes,"[30]; sc., im., and intraperitoneal (ip.), mice",similar
"CCNCCCNCCCNCCCNCC [Denop, diethylnospermine]",effect on proliferating macrophages,[1],potent effect of inhibition
"CCNCCCNC[C@@H]1C[C@@H]1CNCCCNCC.Cl.Cl.Cl.Cl [SL-11037, n-ethyl-n′-(2-(3′-ethylamino-propylaminomethyl)-cis-cyclopropylmethyl)-propane 1,3-diamine tetrahydrochloride]",effect on proliferating macrophages,[1],potent effect of inhibition
"CCNCCCNC/C=C\CNCCCNCC.Cl.Cl.Cl.Cl [SL-11047, N′-bis (3-ethylaminopropyl)-cis-but-2-ene-1,4-diamine tetrahydrochloride]",effect on proliferating macrophages,[1],potent effect of inhibition
CCNCCCNC/C=C/CNCCCNCC [SL-11048],effect on proliferating macrophages,[1],potent effect of inhibition
CN1[C@@H]2CC[C@H]1C[C@@H](OC(=O)C(CO)c1ccccc1)C2 (some centres unmarked) [atropine],counteraction of the effect of Capsaicin,"[7]; rat, in vivo",able to counteract the effect of Capsaicin
"COc1cc(CNC(=O)CCCCCCC(C)C)ccc1O [dihydroCapsaicin, 8-methylnonanoic acid vanillylamide]",activity,[2],did not show activity
same,activity,[5],did not show activity
same,activity,[6],did not show activity
same,effect on growth / activity,[11],did not show activity
same,effect on growth / activity,[18],did not show activity
same,activity,[20],did not show activity
same,effect on growth / activity,[26],did not show activity
same,effect on growth / activity,[28],did not show activity
CCO [ethanol],blood alcohol concentration,[31]; 0.5 fluid ounces (about 15 ml) in a 150 pound human,0.02%
same,blood alcohol concentration that starts to produce measurable mental impairment,[31]; in vivo,0.05%
same,fraction processed by the liver,[31]; in vivo,over 90%
C=CCc1ccc(O)c(OC)c1 [eugenol],"concentration required to completely inhibit reactive oxygen species, compared with Capsaicin",[12],Higher concentrations
"arg-pro-lys-pro-gln-gln-phe-phe-gly-leu-met-nh2 (RPKPQQFFGLM-NH2; UniProt P20366 58-68, looked up) [Substance p (sp), undecapeptide neuropeptide]",phagocytosis,[32],stimulates phagocytosis
same,"macrophage activation, liberation of reactive oxygen species",[33],activated such macrophages
same,phagocytosis,[34],stimulates phagocytosis
"b-endorphin: group of protein with potent analgesic properties that occur naturally in the brain (YGGFMTSEKSQTPLVTLFKNAIIKNAYKKGE; Beta-endorphin; UniProt P01189 237-267, looked up)",proliferative response of lymphocytes,[35],increases
same,increase of activity of nk cells,[36],30.5%
"kallidin: neuropeptide provoking histamine release (KRPPGFSPFR; Lysyl-bradykinin; UniProt P01042 380-389, looked up)","power in provoking histamine release, compared with substance p and polisteskinin",[37],Less powerful
methionyl-lysyl-bradykinin,"power in provoking histamine release, compared with substance p and polisteskinin",[37],Less powerful
polyoxyethylene sorbitan monooleate [tw80],signs of toxicity,[38],no dose-related signs of toxicity
